Measurements as given in patent US4975449A, “Topical treatment of glaucoma with 2-benzothiazolesulfonamide derivative” (University of Iowa Research Foundation, priority 1983, dated 1990).
Values joined by “and” are separate entries in the source; they are usually repeats but may differ in a detail not shown here. Identical values can stand only once. “Also recorded” adds a separate entry of the source.

Assays:
[1] = tested on: rabbit eyes (intraocular pressure); assay: Rabbit Eye Tests (In-Vivo IOP Determinations), Water Loading Model; parameters: species or system New Zealand albino rabbits; conditions: for drop in IOP (right eye) compared to no drug control: 6-ethoxy-N-methyl: at 90 and 120 minutes, 6-chloro: 15 through 90 minutes, ethoxzolamide: any time point
Procedure: New Zealand albino rabbits either sex and weighing 1.9-2.4kg were used. Control IOP measurements were made by applanation tonometry (Alcon Applanation Pneumatonograph®) prior to water loading and drug administration. The rabbits were first anesthelized and then water loaded using 100 ml/kg (sterile water for injection). The water dose was given intraperitoneally over 15-20 minutes Four test formulations were administered topically to the right eye of each rabbit immediately following water loading. The vehicle was administered to the left eye of each rabbit. The test formulations contained 1% suspensions of ethoxzolamide, and the other indicated compounds, and a vehicle (coded E). The vehicle contained a pH 7.2 phosphate buffer and 0.05% polysorbate 80 (Tween-80®). IOP measurement were made in right and left eyes at 15, 30, […], 60, 90, 120 and 180 minutes after topical administration.

[2] = tested on: rabbit eyes (intraocular pressure); assay: Salted Rabbit Test (IOP in rabbits fed a sodium enriched diet); type: in vivo, adult white rabbits; conditions: for IOP change, (IOPDET - IOPCET) - (IOPDEO - IOPCEO) / Difference in IOP between both eyes just prior to dosing (IOPDEO - IOPCEO): individual rabbit; for IOP change, (IOPDET - IOPCET) - (IOPDEO - IOPCEO): 1% w/v suspension topical; for Difference in IOP between both eyes just prior to dosing (IOPDEO - IOPCEO): t = 0, pre-dose; for Effectiveness in lowering IOP, comparison (in words): the two rabbit models of Examples 10 and 11
Procedure: The treated eye was selected randomly, whereas, the fellow eye received placebo; the observer was masked.
In particular, a 1% w/v suspension of 6-chloro-2-benzothiazolesulfonamide analog was prepared in a standard vehicle consisting of aqueous pH 7.8 phosphate buffer, 0.05% w/v tween 80, and sufficient NaC1 to make the preparation isotonic. One drop, followed by two drops each at one minute intervals, was applied to one eye of normal adult white rabbits. Fifteen rabbits were used in the experiment. The treated eye was selected randomly, whereas, the fellow eye received placebo. The observer was masked. The intraocular pressure (IOP) was measured with an Alcon […] pneumotonometer. A drop of local anesthetic was applied just prior to making the measurement. The IOP was measured in both rabbit eyes at 0, 30, 60, 90 and 120 minutes following instillation of the new antiglaucoma agent.

[3] = tested on: rabbit eyes (intraocular pressure); assay: as above; type: in vivo, adult white rabbits; conditions: for Lowering of IOP (in words): 6-chloro: 30, 60 and 120 minutes, ethoxzolamide: any time point after dosing; for Average IOP change: 1% w/v suspension topical; for Average difference in IOP between both eyes just prior to dosing: t = 0, pre-dose; for Statistical significance of IOP change: N.S. = non-significant
[4] = 15 min after topical administration, 1% suspension, 50 ul q 2 min × 6, right eye
[5] = 30 min after topical administration, 1% suspension, 50 ul q 2 min × 6, right eye
[6] = 60 min after topical administration, 1% suspension, 50 ul q 2 min × 6, right eye
[7] = 90 min after topical administration, 1% suspension, 50 ul q 2 min × 6, right eye
[8] = 120 min after topical administration, 1% suspension, 50 ul q 2 min × 6, right eye
[9] = 180 min after topical administration, 1% suspension, 50 ul q 2 min × 6, right eye
[10] = time 0 min, baseline, 1% suspension topical to right eye

Compound	drop in IOP (right eye) compared to no drug control [1]	IOP, right eye (R) [1, 4] [mmHg]	IOP, right eye (R) [1, 5] [mmHg]	IOP, right eye (R) [1, 6] [mmHg]	IOP, right eye (R) [1, 7] [mmHg]	IOP, right eye (R) [1, 8] [mmHg]	IOP, right eye (R) [1, 9] [mmHg]	IOP, right eye (R) [1, 10] [mmHg]	Paired t value of IOP change ([2]; 60 min)	Paired t value of IOP change ([2]; 120 min)	IOP change, (IOPDET - IOPCET) - (IOPDEO - IOPCEO) ([2]; 30 min)	IOP change, (IOPDET - IOPCET) - (IOPDEO - IOPCEO) ([2]; 60 min)	IOP change, (IOPDET - IOPCET) - (IOPDEO - IOPCEO) ([2]; 90 min)	IOP change, (IOPDET - IOPCET) - (IOPDEO - IOPCEO) ([2]; 120 min)	Difference in IOP between both eyes just prior to dosing (IOPDEO - IOPCEO) [2]	Effectiveness in lowering IOP, comparison (in words) [2]	Lowering of IOP (in words) [3]	Paired t value of IOP change ([3]; 30 min)	Paired t value of IOP change ([3]; 90 min)	Average IOP change ([3]; 30 min)	other results
NS(=O)(=O)c1nc2ccc(Cl)cc2s1 [6-Chloro benzothiazole-2-sulfonamide, 6-Chloro-2-benzothiazolesulfonamide]	significant drop	19.72	20.00	21.39	19.11	18.78	17.8	14.33	-2.106	-2.11	-3 mm Hg and -5 mm Hg and +1 mm Hg and 0 mm Hg and -4 mm Hg and -1 mm Hg and -2 mm Hg and +2 mm Hg	-2 mm Hg and -4 mm Hg and +1 mm Hg and -3 mm Hg and +2 mm Hg and -1 mm Hg and +3 mm Hg	-1 mm Hg and -2 mm Hg and +1 mm Hg and -3 mm Hg and +2 mm Hg and 0 mm Hg and +3 mm Hg	-2 mm Hg and -4 mm Hg and +3 mm Hg and -1 mm Hg and -5 mm Hg and 0 mm Hg and -6 mm Hg and +1 mm Hg	+1 mm Hg and +2 mm Hg and 0 mm Hg and +3 mm Hg and -2 mm Hg and -1 mm Hg and -3 mm Hg	pharmacologically active (lowered IOP)	small but significant reduction of intraocular pressure; also recorded: statistically significant	-1.834	-1.63	-0.93 mm Hg	Effectiveness (in words) ([1]; water loading model, topical): proved effective; Probability (1.t.) of IOP change ([3]; 30 min): 0.05; Probability (1.t.) of IOP change ([3]; 60 min): 0.025; Probability (1.t.) of IOP change ([3]; 90 min): 0.1; Probability (1.t.) of IOP change ([3]; 120 min): 0.025; Average IOP change ([3]; 60 min): -1.27 mm Hg; Average IOP change ([3]; 90 min): -0.87 mm Hg; Average IOP change ([3]; 120 min): -1.47 mm Hg; Average difference in IOP between both eyes just prior to dosing [3]: +0.27 mm Hg
CCOc1ccc2nc(S(=O)(=O)NC)sc2c1 [6-Ethoxy-N-methyl-2-benzothiazolesulfonamide]	significant drop	19.10	19.90	20.33	18.57	17.24	17.00	14.10													
CCOc1ccc2nc(S(N)(=O)=O)sc2c1 [Ethoxzolamide, reference compound]	no effect	21.07	21.60	21.33	20.33	18.80	16.4	14.94	0.40	0.50	+1 mm Hg and +2 mm Hg and -2 mm Hg and -3 mm Hg and 0 mm Hg	+3 mm Hg and -2 mm Hg and +2 mm Hg and +1 mm Hg and 0 mm Hg	+1 mm Hg and 0 mm Hg and +2 mm Hg and -2 mm Hg and -3 mm Hg	0 mm Hg and -1 mm Hg and +2 mm Hg	+4 mm Hg and +1 mm Hg and -1 mm Hg and 0 mm Hg	no effectiveness	No lowering of IOP could be detected	1.27	0.73	-.17 mm Hg	Statistical significance of IOP change ([3]; 30 min): N.S.; Statistical significance of IOP change ([3]; 60 min): N.S.; Statistical significance of IOP change ([3]; 90 min): N.S.; Statistical significance of IOP change ([3]; 120 min): N.S.; Average IOP change ([3]; 60 min): +.33 mm Hg; Average IOP change ([3]; 90 min): -0 mm Hg; Average IOP change ([3]; 120 min): +.17 mm Hg; Average difference in IOP between both eyes just prior to dosing [3]: +.67 mm Hg
